Assay results reported in PubChem BioAssay (NCI).
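In this assay, cells in 96-well plates receive the compound at five concentrations for 48 hours. Endpoints are linearly interpolated between the surrounding concentrations. GI50 is the concentration that inhibits growth by half. At the TGI there is no net growth.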

Key:
Assay in all cases: NCI tumour cell line growth inhibition, 48 h
CAKI-1 renal = tested on: CAKI-1 renal
DMS 273 small cell lung = tested on: DMS 273 small cell lung
HCC-2998 colon = tested on: HCC-2998 colon
M19-MEL melanoma = tested on: M19-MEL melanoma
MOLT-4 leukemia = tested on: MOLT-4 leukemia
NCI-H23 lung = tested on: NCI-H23 lung
NCI-H460 lung = tested on: NCI-H460 lung
OVCAR-4 ovarian = tested on: OVCAR-4 ovarian
SF-268 CNS = tested on: SF-268 CNS
SW-620 colon = tested on: SW-620 colon
KM12 colon = tested on: KM12 colon

| SMILES | TGI (CAKI-1 renal) [µM] | TGI (DMS 273 small cell lung) [µM] | TGI (HCC-2998 colon) [µM] | TGI (M19-MEL melanoma) [µM] | TGI (MOLT-4 leukemia) [µM] | TGI (NCI-H23 lung) [µM] | TGI (NCI-H460 lung) [µM] | TGI (OVCAR-4 ovarian) [µM] | TGI (SF-268 CNS) [µM] | TGI (SW-620 colon) [µM] | TGI (KM12 colon) [µM] | GI50 (CAKI-1 renal) [µM] | GI50 (HCC-2998 colon) [µM] | GI50 (KM12 colon) [µM] | GI50 (MOLT-4 leukemia) [µM] | GI50 (NCI-H23 lung) [µM] | GI50 (NCI-H460 lung) [µM] | GI50 (OVCAR-4 ovarian) [µM] | GI50 (SF-268 CNS) [µM] | GI50 (SW-620 colon) [µM] |
| --- | --- | --- | --- | --- | --- | --- | --- | --- | --- | --- | --- | --- | --- | --- | --- | --- | --- | --- | --- | --- |
| CCOC(=O)c1ncoc1[C@H]1COC(C)(C)O1 | > 100 | > 100 | > 100 | > 100 | > 100 | > 100 | > 100 | > 100 | > 100 | > 100 | – | – | – | – | – | – | – | – | – | – |
| O=C1Nc2cccc3ncn(c23)C2=C1CCCC2 | – | > 100 | > 100 | > 100 | > 100 | > 100 | > 100 | – | > 100 | > 100 | > 100 | – | – | – | – | – | – | – | – | – |
| O=C1C=C(N2CCCC2)C=C(N2CCCC2)C1 | > 100 | > 100 | > 100 | 91.2 | > 100 | > 100 | > 100 | – | > 100 | > 100 | > 100 | – | – | – | – | – | – | – | – | – |
| O=C(O)C(CS)NCc1c2ccccc2[n+]([O-])c2ccccc12 (stereo not given) | > 100 | > 100 | > 100 | > 100 | 78.9 | > 100 | > 100 | 86.6 | 91.3 | > 100 | > 100 | – | – | – | – | – | – | – | – | – |
| CCN(CC)CCNC(=O)c1ccc([N+](=O)[O-])cc1OC | > 100 | > 100 | – | > 100 | > 100 | > 100 | > 100 | > 100 | > 100 | > 100 | > 100 | – | – | – | – | – | – | – | – | – |
| COC(=O)C1Cc2c([nH]c3ccccc23)C(c2cccc(O)c2)N1 (stereo not given) | > 100 | – | 48.3 | – | > 100 | 96.8 | 62 | > 100 | > 100 | 60.8 | > 100 | – | – | – | – | – | – | – | – | – |
| CC12CC3CC/C(=N\O)C(C1)C3(N1CCOCC1)C/C2=N/O (stereo not given) | > 100 | – | > 100 | – | > 100 | > 100 | > 100 | > 100 | > 100 | > 100 | > 100 | – | – | – | – | – | – | – | – | – |
| N=C(/C=C/c1ccc(-c2cn3cc(/C=C/C(=N)N4CCCC4)ccc3n2)cc1)N1CCCC1 | > 100 | – | > 100 | – | > 100 | > 100 | > 100 | > 100 | > 100 | > 100 | > 100 | – | – | – | – | – | – | – | – | – |
| O=C(c1ccccc1)c1nn(-c2ccc(Cl)cc2)c2nc3nc(-c4ccccc4)cc(=O)n3nc12 | > 100 | – | 66.5 | – | > 100 | > 100 | > 100 | > 100 | > 100 | > 100 | > 100 | > 100 | 29.7 | 31.9 | 37.9 | 65.6 | 39.1 | 39.9 | 42.2 | 49.5 |
| O=C1/C(=C\c2ccc([N+](=O)[O-])cc2)Sc2scc(-c3ccc(O)c(O)c3)[n+]21 | 9.72 | – | 19 | – | 51.3 | 44.6 | 16.5 | 24.7 | 21 | 15 | 27.6 | – | – | – | – | – | – | – | – | – |
| O=c1[nH]c2cc(C(F)(F)F)ccc2nc1Cc1ccccc1 | > 100 | – | > 100 | – | > 100 | 68.8 | > 100 | > 100 | > 100 | > 100 | > 100 | – | – | – | – | – | – | – | – | – |
| CC(=O)N1c2ccccc2C(C)(C)OC1C(Cl)(Cl)Cl (stereo not given) | > 100 | – | 74.2 | – | 35.5 | > 100 | > 100 | > 100 | > 100 | > 100 | > 100 | – | – | – | – | – | – | – | – | – |
| Cc1cccc(/C=N/NC(=S)NCc2ccccn2)n1 | > 100 | – | > 100 | – | > 100 | > 100 | > 100 | > 100 | > 93 | > 100 | > 100 | – | – | – | – | – | – | – | – | – |
| CC(=O)OCCC1c2ccccc2-n2nc(-c3ccccc3)c(O)c21 (stereo not given) | 33.6 | – | 56 | – | 56.3 | 34.5 | 28.3 | 40.5 | 90.6 | 31.6 | 38.5 | – | – | – | – | – | – | – | – | – |
| COc1ccc2c(c1)c1nn(CCN(C)C)c3ccc4c(=O)n(CCN(C)C)c(=O)n2c4c13 | 0.601 | – | 0.0546 | – | 0.197 | 0.231 | 0.0142 | 0.0645 | 0.211 | 0.355 | 0.481 | – | – | – | – | – | – | – | – | – |
| O=C(CCCN1CCC2(CC1)C(=O)NC(=O)N2c1ccccc1)c1ccc(F)cc1 | > 100 | – | > 100 | – | > 100 | > 100 | > 100 | > 100 | > 100 | > 100 | > 100 | – | – | – | – | – | – | – | – | – |

| SMILES | TGI (CAKI-1 renal) [µM] | TGI (DMS 273 small cell lung) [µM] | TGI (HCC-2998 colon) [µM] | TGI (M19-MEL melanoma) [µM] | TGI (MOLT-4 leukemia) [µM] | TGI (NCI-H23 lung) [µM] | TGI (NCI-H460 lung) [µM] | TGI (OVCAR-4 ovarian) [µM] | TGI (SF-268 CNS) [µM] | TGI (SW-620 colon) [µM] | TGI (KM12 colon) [µM] | GI50 (CAKI-1 renal) [µM] | GI50 (HCC-2998 colon) [µM] | GI50 (KM12 colon) [µM] | GI50 (MOLT-4 leukemia) [µM] | GI50 (NCI-H23 lung) [µM] | GI50 (NCI-H460 lung) [µM] | GI50 (OVCAR-4 ovarian) [µM] | GI50 (SF-268 CNS) [µM] | GI50 (SW-620 colon) [µM] |
| --- | --- | --- | --- | --- | --- | --- | --- | --- | --- | --- | --- | --- | --- | --- | --- | --- | --- | --- | --- | --- |
| O=C1NCC2(CCNCC2)N1c1ccccc1 | > 100 | – | > 100 | – | > 100 | > 100 | > 100 | > 100 | > 100 | > 100 | > 100 | – | – | – | – | – | – | – | – | – |
| COc1ccc(/C=C2\CN(C(=O)CCN3CCC(=NO)CC3)C/C(=C\c3ccc(OC)cc3)C2=O)cc1 | 3.74 | – | 3.51 | – | 26.9 | 6.37 | 6.74 | 17.7 | – | 3.14 | 3.71 | 1.82 | 1.85 | 1.74 | 2.95 | 2.47 | 2.63 | 3.34 | 2.84 | 1.39 |
| CC(=O)Nc1ccc(Nc2cc(=O)n(C)c(=O)[nH]2)cc1 | > 100 | – | > 100 | – | > 100 | > 100 | > 100 | > 100 | > 100 | > 100 | > 100 | – | – | – | – | – | – | – | – | – |
| Cc1ccc(/C=C2\CN(C)CC3C(c4ccc(C)cc4)=C(C#N)C(=O)NC23)cc1 (stereo not given) | > 50 | – | > 50 | – | > 50 | > 50 | > 50 | > 50 | > 50 | > 50 | > 50 | – | – | – | – | – | – | – | – | – |
| Cc1cc(S(N)(=O)=O)c(SCc2nc(N)nc(N(C)C)n2)cc1Cl | > 10 | – | > 10 | – | > 10 | > 10 | > 10 | > 10 | > 10 | > 10 | > 10 | – | – | – | – | – | – | – | – | – |
| CCOc1ccc(N2C(=O)C3c4[nH]c5ccccc5c4C4CCC(C(C)(C)C)CC4C3C2=O)cc1 (stereo not given) | – | > 100 | 79.4 | – | > 100 | > 100 | – | > 100 | > 100 | > 100 | – | – | – | – | – | – | – | – | – | – |
| O=C(NCCN1C(=O)CN=C(c2ccc(Cl)cc2)c2cc(Cl)ccc21)OCc1ccccc1 | 31.9 | – | 32.7 | – | > 100 | 33.8 | 32.4 | 22.6 | 29.9 | > 100 | 32.4 | – | – | – | – | – | – | – | – | – |
| Cc1c(C(=O)CSc2nc3ccc([N+](=O)[O-])cc3[nH]2)c(=O)n(-c2ccccc2)n1C | > 100 | > 100 | > 100 | > 100 | > 100 | > 100 | > 100 | > 100 | > 100 | > 100 | > 100 | – | – | – | – | – | – | – | – | – |
| CC(NC1=CC(=O)c2ncccc2C1=O)C(O)c1ccccc1 (stereo not given) | 16.2 | – | 23.2 | – | 41.8 | > 19.8 | 3.22 | 22.3 | 53.4 | 19.8 | 24.8 | – | – | – | – | – | – | – | – | – |
| COc1cc(N(CCC#N)CCC#N)ccc1/C(N=Nc1ccc(C)cc1)=N/NC(=O)c1cc(Br)ccc1O | 66.6 | – | 50.1 | – | 37.3 | 39.3 | 54.4 | 63.1 | 91.4 | > 100 | 44.9 | – | – | – | – | – | – | – | – | – |
| CC(=O)OCC1OC(Nc2ccc3nc(C)n(-c4cccc(C)c4)c(=O)c3c2)C(OC(C)=O)C(OC(C)=O)C1OC(C)=O (stereo not given) | > 62.5 | – | > 62.5 | – | > 62.5 | > 62.5 | > 62.5 | > 62.5 | > 62.5 | > 62.5 | > 62.5 | – | – | – | – | – | – | – | – | – |
| Oc1c(C2=NNC(c3cccs3)C2)ccc2ccccc12 (stereo not given) | > 100 | – | 34.2 | – | 30.9 | > 100 | 43.4 | > 100 | 38.3 | 70.3 | 36.2 | – | – | – | – | – | – | – | – | – |
| COC(=O)c1ccc2c(c1)CC1(C2)Cc2cc3c(c(C(=O)OC)c2C1)CCCC3 (stereo not given) | > 100 | – | > 100 | – | > 100 | > 100 | > 100 | > 100 | > 100 | > 100 | > 100 | – | – | – | – | – | – | – | – | – |
| CSCCC(NCc1c(O)ccc2ccc(=O)oc12)C(=O)O (stereo not given) | > 100 | – | > 100 | – | > 100 | > 100 | > 100 | > 100 | > 100 | > 100 | > 100 | – | – | – | – | – | – | – | – | – |
| O=C1C(C(O)(C(F)(F)Cl)C(F)(F)Cl)CCC1C(O)(C(F)(F)Cl)C(F)(F)Cl (stereo not given) | 9.69 | – | > 10 | – | > 10 | 6.19 | > 10 | > 10 | > 10 | > 10 | > 10 | – | – | – | – | – | – | – | – | – |
| CCOC(=O)N1CCN(Cc2cc(=O)n3cc(C)ccc3n2)CC1 | > 100 | – | > 100 | – | > 100 | > 100 | > 100 | > 100 | > 100 | > 100 | > 100 | – | – | – | – | – | – | – | – | – |
